Structures are written as SMILES.

Common to all, as to format: in vivo
One assay relates to Myzus persicae. As to the kind of experiment: Foliar application Myzus persicae / bell peppers (spray test). The following applies: spray on infested bell pepper plants, AMS and/or RME each 1000 ppm in spray liquor where named, 6 days. The protocol: Foliar Application Myzus persicae/Bell Peppers
(§1) To produce a suitable active compound preparation, 1 part by weight of active compound is mixed with the stated amounts of solvent and emulsifier, and the concentrate is diluted with emulsifier-containing water to the desired concentration. For application with ammonium salts and penetrants (rapeseed oil methyl ester 500 EW), these ingredients are each added to the spray liquor in a concentration of 1000 ppm.
Bell pepper plants (Capsicum annuum) heavily infested by the green peach aphid (Myzus persicae) are treated by spraying with the active compound preparation of the desired concentration. After 6 days, the kill in % is determined. 100% means that all aphids have been killed; 0% means that no aphids have been killed.

For the next assay, the system named is Aphis gossypii. Put plainly: Foliar application Aphis gossypii / cotton (spray test). Conditions: spray on infested cotton plants, 6 days. How it is done:
Foliar Application Aphis gossypii/Cotton
as §1
Cotton plants (Gossypium hirsutum) heavily infested by the cotton aphid (Aphis gossypii) are treated by spraying with the active compound preparation of the desired concentration. After 6 days, the kill in % is determined 100% means that all aphids have been killed; 0% means that no aphids have been killed.

The subject of the next assay is Bemisia tabaci. As to the kind of experiment: Bemisia tabaci (BEMITA spray treatment) on cotton leaf discs. The following applies: 0.8 ppm active compound; spray on cotton leaf discs infested by whitefly larvae; 7 days. How it is done: Bemisia tabaci (BEMITA Spray Treatment)
To produce a suitable active compound preparation, 1 part by weight of active compound is mixed with the stated amounts of solvents and emulsifier, and the concentrate is diluted with emulsifier-containing water to the desired concentration.
Discs of cotton leaves (Gossypium hirsutum) infested by whitefly (Bemisia tabaci) larvae are sprayed with an active compound preparation of the desired concentration.
After 7 days, the effects in % is determined 100% means that all whiteflies have been killed; 0% means that none of the whiteflies have been killed.

The mark [1] stands for this setting: 0.8 ppm active compound, AMS and/or RME each 1000 ppm in spray liquor where named.

In the case of `CN(Cc1ccc(Cl)nc1)C1=NC(=O)OC1` [I-1, 4-[[(6-chloro-3-pyridinyl)methyl]methylamino]-2(5H)-oxazolone], the entries for the “Kill in % after 6d” value in the assay on Myzus persicae (0.8 ppm active compound) and in the assay with Aphis gossypii (setting [1]) were 0% and 35%, respectively.
For the compound `O=C1N=C(N(Cc2ccc(Cl)nc2)C2CC2)CO1` [I-6, 4-[[(6-chloro-3-pyridinyl)methyl]cyclopropylamino]-2(5H)-oxazolone], the “Kill in % after 6d” value was determined as 15% in the assay on Myzus persicae (4 ppm active compound); 0% in the assay on Aphis gossypii (setting [1]); 40% with Aphis gossypii (4 ppm active compound, RME 1000 ppm in spray liquor where named). In addition, the “Kill in % after 7d” value with Bemisia tabaci amounted to 40%.

(Values after patent US20120004268A1, “INSECTICIDAL COMPOSITIONS COMPRISING CYCLIC CARBONYLAMIDINES” (BAYER CROPSCIENCE AG, priority 2010, published 2012).)
